Assay [1] deals with logarithmic E. coli cells. The assay is described as follows: Preservation survival and stability of logarithmic E. coli cells loaded in vitro before foam drying. The assay is classed as cell-based. Conditions: mid-logarithmic cells loaded with 0.1% at 37° C. for 30 minutes.
For assay [2], the system named is Escherichia coli ATCC strain MM294 cells. The assay is described as follows: Electroporation of E. coli MM294 cells with pUC18 (survival and efficiency). The assay is classed as cell-based. Conditions: cells loaded with 10% MAG, preserved (dried); average of three independent experiments. The method, then: (2) Electroporation of fresh E. coli electrocompetent cells: Two aliquots of the concentrated cells (50 μl each) were transferred into pre-chilled Eppendorf tubes (1.5 ml) and 2 μl of pUC18 plasmid DNA (approx. 300 ng/μl) were added to the tubes. The [cells+DNA] mixtures were incubated on ice for 5 minutes and transferred into pre-chilled cuvettes for electroporation. The cells were electroporated by using a BTX T-100 electroporator, at 625 or at 800 volts (V) in BTX cuvettes (0.1 cm gap, P/N 610 Disposable Cuvettes) with a time constant “r” equal 5 msec. Under the pulse conditions described above, the cells were subjected to an electrical field “E” equal to 6.25 kV/cm or 8.0 kV/cm.
Immediately after the pulse, the cells were transferred into small glass tubes (10×100 mm) with 0.5 ml of “outgrowth medium” (L-broth+20% sucrose+10 mM CaCl2). The electroporated bacteria were incubated at 37° C. with moderate shaking (150 rpm) for 60 minutes. When the 60 minutes period elapsed, the cells were diluted in “outgrowth medium” and duplicate samples were spread plated on L-agar plates with no antibiotic (to determine electroporation survival) and on L-agar plates with 50 μg/ml or 100 μg/ml of ampicillin (selective marker on pUC18 plasmid; to determine electroporation efficiency). The plates were incubated overnight at 37° C. and the colonies were counted the next day.
(6) Electroporation of dried (preserved) E. coli cells: One or two 50 μl aliquots were removed from each rehydrated vial and transferred to pre-chilled Eppendorf tubes. The cells were mixed with pUC18 plasmid DNA (300 ng/μl) and electroporated using the conditions described previously for the electroporation of fresh electrocompetent cells.
Electroporation survival was calculated as the number of viable cells recovered after electrical pulse per total number of electroportated cells. Electroporation efficiency was calculated as the number of transformants (cells which received pUC18 plasmid DNA) per number of cells recovered after electroporation (electroporation survival). When applicable, the electroporation efficiency was also expressed as number of transformants per 1 μg of pUC18 DNA (Cfu/μg).
In this experiment, the cells were washed twice in ice-cold 20% sucrose and concentrated 100-fold after the second wash. Additionally, four samples were prepared (A, B, C, and D). […] Additional solution consisting of 22.5% 4:1 sucrose:MAG was prepared and evaluated for preservation of the cells (sample D). […] Electroporation survival and efficiencies in samples rehydrated with solutions containing different amounts of sucrose were determined. […] Electroporation survival and efficiencies were determined and compared.

In turn, `COC1OC(CO)C(O)C(O)C1O` (centres unmarked) [MAG, a-methyl-glucoside] showed a survived drying in assay [1] of 9%. In assay [2], the “Electroporation Efficiency 10^−3%” value is recorded as 5.6 10^−3%, the “Electroporation Efficiency Cfu/ml” value is recorded as 1.7 × 10^5 Cfu/ml, the “Electroporation Survival (%)” value stood at 28.6% and the “Electroporation Survival Cfu/ml” value is on record as 3.0 × 10^9 Cfu/ml.

For the origin of these results see patent publication US20050074867A1, “Preservation of competent cells at ambient temperatures” (priority 2001, published 2005).
